2 molecules from patent publication US4551460A, “Pyrido[2,1-b]quinazoline derivatives useful as agents for treatment of allergic conditions and vascular disorders involving thrombosis” (priority 1983, dated 1985) can be followed below.

The subject of one test is PAF induced mortality. Nature of the test: Prevention of mortality induced by platelet aggregating factor (PAF). The note with it: PAF 0.10 mg/kg i.v. It is filed as in vivo, mice (CF1). On the procedure:
(k) Prevention of Mortality Induced by Platelet Aggregating Factor (PAF)
Male CF1 mice weighing 20-30 gms (Carworth Farms Co.) are fed ad libitum.
Racemic 2-[[[2-(acetyloxy)-3-(octadecyloxy)propoxy]hydroxyphosphinyl]oxy]-N,N,N-trimethylethanaminium hydroxide inner salt hemihydrate (PAF) is concentrated in ethanol at a concentration of 1 mg/ml.At the time of experimentation, PAF is diluted in 0.1% BSA (bovine serum albumin) and administered intravenously at a dose of 0.10 mg/kg one hour after 10 mice are dosed with either vehicle (BSA) or drug. Mortality in mice treated with PAF occurs within 30 minutes after i.v. administration.

The subject of test [1] is histamine-induced bronchoconstriction. Nature of the test: Antagonism of histamine-induced bronchoconstriction in guinea pigs. The format is in vivo, guinea pig (Hartley strain). Conditions: Cavia porcellus, po, 2 hour pretreatment; read-out: ID50 antagonism of histamine-induced bronchoconstriction. On the procedure: (g) Antagonism of PAF and Histamine-induced Bronchoconstriction in Guinea Pig
Spontaneously breathing male guinea pigs (Hartley strain) weighing 300-450 grams are dosed orally with test drug or control vehicle two hours prior to challenge with agonist. The animals are anesthetized with urethane (2 gm/kg) intraperitoneally and the jugular vein and trachea are cannulated. Two hours after dosing, the animal is paralyzed with succinylcholine (1.2 mg/kg, i.v.) and ventilated (Harvard rodent respirator) at 40 breaths/minutes and 2.5 cc tidal volume. Propranolol (0.1 mg/kg, i.v.) is administered and five minutes thereafter the animal is challenged with a constrictory dose of platelet activating factor (10 μg/kg, i.v.) or histamine dihydrochloride (20 μg/kg, i.v.). The change (cm H2 O) between pre and peak ventilatory pressure readings is averaged for three control animals and five drug treated animals. The percent inhibition is calculated from the following formula: (Control-Drug Treated/Control)×100.

Regarding `CC(C)c1ccc2nc3ccc(C(=O)NCCCCCCc4cccnc4)cn3c(=O)c2c1` [Compound C, 2-(1-Methylethyl)-N-[6-(3-pyridyl)hexyl]-11-oxo-11H-pyrido[2,1-b]quinazoline-8-carboxamide], in the test on PAF induced mortality (Mus musculus, Platelet, oral, read-out: oral ID50 (Inhibiting Dose), PAF induced mortality), the ED50 stood at 13 mg/kg. For the same molecule, the “prevention of PAF induced mortality” value in the test on PAF induced mortality is reported as “prevented PAF induced mortality”. In the case of `CC(C)c1ccc2nc3ccc(C(=O)NCCCCn4ccnc4)cn3c(=O)c2c1` [Compound A, N-[4-(1H-imidazol-1-yl)butyl]-2-(1-methylethyl)-11-oxo-11H-pyrido[2,1-b]quinazoline-8-carboxamide], the ED50 in test [1] is 39 mg/kg.
